Experimental data from patent publication US20230416268A1, “PYRIMIDINONE-CONTAINING 17-BETA-HYDROXYSTEROID DEHYDROGENASE TYPE 13 INHIBITORS” (ENANTA PHARMACEUTICALS, INC., priority 2022, published 2023).

The molecules below were run against Recombinant human 17β-HSD13 (Homo sapiens (Human), UniProt Q7Z5P4) (assay: 17β-HSD13 rapid-fire mass spectrometry assay (RF/MS assay)). Conditions: HSD17B13 80 nM, LTB4 10 μM, NAD+ 0.5 mM, RT 3 h, RF/MS readout.
Chain of Recombinant human 17β-HSD13 (Q7Z5P4 20-300): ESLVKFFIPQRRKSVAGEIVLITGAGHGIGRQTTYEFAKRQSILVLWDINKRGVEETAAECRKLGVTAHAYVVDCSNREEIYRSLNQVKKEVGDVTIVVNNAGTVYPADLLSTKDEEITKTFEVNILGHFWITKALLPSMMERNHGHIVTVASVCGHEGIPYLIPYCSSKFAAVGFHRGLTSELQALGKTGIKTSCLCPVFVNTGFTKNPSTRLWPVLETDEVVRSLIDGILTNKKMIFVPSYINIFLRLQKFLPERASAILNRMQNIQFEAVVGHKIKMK
Format: biochemical
Experimental: 17β-HSD13 rapid-fire mass spectrometry assay (RF/MS assay). Recombinant human 17β-HSD13 was expressed and purified from sf9 cells at Charles River Labs (Saffron Walden, UK). […] The assays were quenched by adding 20 μL of 0.15% aqueous formic acid and the plates were frozen at −80° C. RF/MS analysis was performed at PureHoney Technologies (Billerica, MA) on a RapidFire RF300 system (Agilent Technologies, Inc.) coupled to an API 4000 triple quadrupole mass spectrometer (Sciex) equipped with Agilent RapidFire cartridge type A (C4). The mobile phase was 0.09% formic acid and 0.01% trifluoracetic acid in water (Buffer A) and 0.09% formic acid and 0.01% trifluoracetic acid in 80% aqueous acetonitrile (Buffer B). The RapidFire method conditions were the following: 250 ms aspirate, 3000 ms load/desalt, 4000 ms elute, and 500 ms re-equilibrate. RF-MS/MS was performed in negative polarity (−4500 V), the source temperature was 650° C., and gas 1 and gas 2 settings for nitrogen were set to 50. The curtain gas and collision gas were also nitrogen and were set to 20 and 12, respectively.
Data Analysis. 17β-HSD13 enzyme activity was measured as percent conversion of extracted ion counts and normalized to high and low controls to determine percent residual activity at various concentrations of test compounds. Data were fitted to normalized activity (variable slope) versus concentration fit in GraphPad Prism 7 to determine IC50. All experiments were run in duplicates.
For `O=c1c2c(nc(-c3ccc(F)cc3C3CC3)n1CCn1ccc(C3CC3)n1)sc1c(O)cccc12` [Example 72], the IC50 was 100 to 1000 nM. `Cc1cc(Cn2c(-c3ccc(F)cc3C3CC3)nc3sc4c(O)cccc4c3c2=O)on1` [Example 73] was tested, and the IC50 was 1000 to 10000 nM. In the case of `Cc1ncc(Cn2c(-c3ccc(F)cc3C3CC3)nc3sc4c(O)cccc4c3c2=O)o1` [Example 75], the IC50 is reported as less than 100 nM. `O=c1c2c(nc(-c3ccc(F)cc3C3CC3)n1Cc1cc(C(F)(F)F)no1)sc1c(O)cccc12` [Example 77] was tested, and the IC50 was less than 100 nM. For `O=c1c2c(nc(-c3ccc(F)cc3C3CC3)n1CCn1cnnc1)sc1c(O)cccc12` [Example 78], the IC50 was 100 to 1000 nM. `O=c1c2c(nc(-c3ccc(F)cc3C3CC3)n1CCn1nccn1)sc1c(O)cccc12` [Example 79] was tested, and the IC50 was less than 100 nM. Work on `O=c1c2c(nc(-c3ccc(F)cc3C3CC3)n1CCn1ccnn1)sc1c(O)cccc12` [Example 80] yielded an IC50 of less than 100 nM. Molecule `O=c1c2c(nc(-c3ccc(F)cc3C3CC3)n1CCn1cnnn1)sc1c(O)cccc12` [Example 81] has an IC50 of less than 100 nM. For `CC(C)Oc1ccc(-c2nc3sc4c(O)cccc4c3c(=O)n2Cc2ccno2)c(C2CC2)c1` [Example 82], the IC50 was less than 100 nM. For `CC(C)Oc1ccc(-c2nc3sc4c(O)cccc4c3c(=O)n2Cc2cnco2)c(C2CC2)c1` [Example 83], the IC50 was less than 100 nM. Molecule `O=c1c2c(nc(-c3ccc(F)cc3C3CC3)n1CCCc1nccs1)sc1c(O)cccc12` [Example 84] has an IC50 of less than 100 nM. In the case of `O=c1c2c(nc(-c3ccc(F)cc3C3CC3)n1CCCc1nc3ccccc3s1)sc1c(O)cccc12` [Example 85], the IC50 is reported as less than 100 nM. Molecule `O=c1c2c(nc(-c3ccc(F)cc3C3CC3)n1CCCc1nc3ccccc3o1)sc1c(O)cccc12` [Example 86] has an IC50 of less than 100 nM. `COc1ccc(-c2nc3sc4c(OC(=O)C(C)C)cccc4c3c(=O)n2Cc2cnco2)c(C2CC2)c1` [Example 88] showed an IC50 of 1000 to 10000 nM. With `COc1ccc(-c2nc3sc4c(OC(=O)C(C)(C)C)cccc4c3c(=O)n2Cc2cnco2)c(C2CC2)c1` [Example 89] the IC50 was greater than 10000 nM. Molecule `COc1ccc(-c2nc3sc4c(O)ccc(Cl)c4c3c(=O)n2Cc2cnco2)c(C2CC2)c1` [Example 91] has an IC50 of less than 100 nM.
